Assay [1] has as its system MD4 B cells. Kind of assay: MD4 B cell adoptive transfer, response to HEL-SRBC immunization. It is filed as in vivo, mouse. The protocol: 2 hours before adoptive transfer, C57BL/6 recipient mice received 200 rads irradiation. […] B cells from donor mice were isolated via depletion of CD43+ cells with anti-CD43-conjugated magnetic beads (MACS anti-mouse CD43; Miltenyi Biotec). Alternatively, CD4+ T cells were isolated via CD4 positive selection (MACS anti-mouse CD4 (L3T4) Miltenyi Biotec). Resultant populations were >97% pure based on flow cytometric analyses. Donor B cells were labeled with either CellTrace Violet (Molecular Probes) or CFSE (Molecular Probes) at 5 μM for 5 minutes at room temperature prior to transfer. Donor CD4 T cells were labeled with CFSE (Molecular Probes) at 5 μM for 5 minutes at room temperature prior to transfer. 1-2×10^6 donor cells in 200 μl PBS were adoptively transferred via IV injection. 24 hours post transfer, tamoxifen was administered to activate Cre. Tamoxifen (Sigma-Aldrich) was dissolved in 100% corn oil (Sigma-Aldrich) at 20 mg/ml. Recipient mice were injected IP with 100 μl (2 mg) on two consecutive days.
Diet dose (DD) is calculated by multiplying the single daily dose (SD) by the body weight of a mouse (BW) and dividing that by the daily food intake (FI) [DD=(SD×BW)/FI].
For VH125.NOD experiments animals are placed on control chow immediately after weaning.
HEL conjugated to SRBCs was used to produce antigen for experiments with MD4 B cells. SRBCs (Colorado Serum Company) were stored in Alsever's solution at 4° C. SRBCs are washed 3 times in PBS prior to use. 1 ml of 50 mg/ml of the chemical crosslinker N-(3-Dimethylaminopropyl)-N-ethylcarbodiimide hydrochloride (Sigma-Aldrich) was added to 1 ml packed SRBCs and 15 ml of 5 mg/ml HEL (Sigma-Aldrich), mixed and rotated at room temperature for 45 minutes. Mice were immunized IP with 200 μl of a 5% HEL-SRBC in PBS. For NP4Ova-Alum immunizations, 10 mg/ml alum and 5 mg/ml NP4Ova were mixed to a final concentration of 250 μg/ml NP4Ova and 2.5 mg/ml alum and rotated for 3 hours at room temperature. […] Mice were then immunized with NP4Ova-alum IP in 200 μl/mouse, and responses were measured on day 7 and day 14 post-immunization.
Spleens were mechanically disrupted, single-cell suspensions were generated, and red blood cells were lysed with ammonium chloride TRIS. Cells were resuspended in PBS containing 1% FBS and incubated with indicated antibodies. For analysis of cell surface markers, antibodies against the following molecules were used: B220-PE (BioLegend), B220-BV786 (BD Biosciences), B220-BV510 (BioLegend), CD4-BV711 (BioLegend), CD8-BV421 (BioLegend), CD138-PECy7 (BioLegend), CD69-BV786 (BD Biosciences), CD86-PerCPCy5.5 (BioLegend). After cell surface staining, the cells were fixed and permeabilized with Cytofix/Cytoperm (BD) per manufacturer's instructions and stained with Dylight650-E4 anti-Ars/A1 idiotype (produced and conjugated in our laboratory) OR HEL-650 (produced and conjugated in our laboratory) and Alexa Fluor 488-anti-GFP (rabbit polyclonal; Life Technologies). Events were collected on a CyAn ADP (Dako) and subsequent analysis using FlowJo software (Tree Star).
For detection of IgM^a anti-Ars antibodies, microtiter plates were coated with 10 μg/ml Ars-BSA16 in PBS and blocked with 2 mg/ml BSA in PBS 0.05% Tween-20. For detection of IgM^a anti-HEL antibodies, microtiter plates were coated with 10 μg/ml HEL in PBS and blocked with 2 mg/ml BSA in PBS 0.05% Tween-20. For detection of total NP-specific IgM and IgG, microtiter plates were coated with 20 μg/ml NP27BSA and blocked with 2 mg/ml BSA in PBS 0.05% Tween-20. For detection of high affinity NP-specific IgM and IgG, microtiter plates were coated with 20 μg/ml NP2BSA and blocked with 2 mg/ml BSA in PBS 0.05% Tween-20. Serial dilutions of mouse serum in PBS were added and incubated overnight at 4° C. Ars/A1-derived IgM^a antibodies and MD4-derived HEL IgM^a antibodies were detected with biotinylated DS.1 anti-IgM^a (BD Pharmingen) in PBS, followed by Streptavidin-HRP (Thermo Fisher Scientific). […]

Assay [2] deals with AKT. As to the kind of experiment: phosphorylated signaling intermediaries after BCR stimulation: AKT. Conditions: all doses of inhibitor (15, 60, 490 nM), preincubation. It is filed as cell-based, mouse. The protocol: Cells are then washed 2× in serum free IMDM, and stimulated with 5 μg/ml of F(ab′)2 rabbit anti-mouse anti-IgG (H&L; Invitrogen) or 10 μg/ml anti-CD3-biotin (BD Biosciences)+20 μg/ml streptavidin (Sigma-Aldrich) for 2 minutes. Signaling was stopped by addition of 20% PFA to a final concentration of 2%, incubated at 37° C. for 15 minutes and resuspended in 100% ice-cold MeOH (directly from −80° C.). Cells were then placed on ice for 30 minutes and placed at −20° C. for storage. For analysis, cells were stained with B220-BV786, CD4-BV711, CD8-BV421, and/or pAKT-Alexa Fluor 647 (BD Biosciences), pPLCγ-PE (BD Biosciences), pBTK-BV421 (BD Biosciences) pSyk/Zap70-PE (BD Biosciences) at room temperature for 1 hour. Cells were washed 3 times and samples were acquired in triplicate on an LSR Fortessa X-20 (BD) with analysis using FlowJo software.

Where [3] appears, read: 0.9375 mg/kg chow vs vehicle control, 5 days post immunization.
Where [4] appears, read: 3.75 mg/kg and 30 mg/kg chow vs vehicle control, 5 days post immunization.

Structures are written as SMILES.

Regarding `CC[C@H](Nc1ncnc2nc[nH]c12)c1nc2cccc(F)c2c(=O)n1-c1ccccc1` [idelalisib, 5-fluoro-3-phenyl-2-[(1S)-1-(7H-purin-6-ylamino)propyl]-4(3H)-quinazolinone], in assay [1] (setting [3]), the “HEL-specific ASCs/spleen” value is reported as “equivalent” and the “IgM anti-HEL antibody response” value was “equivalent”. For the same compound, in assay [1] (3.75 mg/kg and 30 mg/kg chow), the “proliferation of recovered MD4 B cells” value is listed as “proliferated less than in controls” and the “recoverable transferred MD4 B cells in the spleen” value is given as “significant decreases”. Further, in assay [1] (setting [4]), the “IgM anti-HEL antibody response” value is “significantly reduced” and the “number of ASCs/spleen” value was “reduced”. Moreover, the “phosphorylation of AKT” value in assay [2] is recorded as “significantly reduced”.

(Values after patent publication US11701361B2, “p110-delta inhibitors treat and prevent autoimmunity while sparing the ability to mount an immune response to exogenous immunogens” (THE REGENTS OF THE UNIVERSITY OF COLORADO, priority 2018, dated 2023).)
